From patent US5945436A, “Pyridylmethyl nitriles, amides and thioamides useful as fungicides” (Uniroyal Chemical Company, Inc., priority 1997, dated 1999)

Experiments:
Scierotinia minor = experiment: Fungal growth inhibition, treated disc on agar (SCL MIN); assay type: cell-based; conditions: disc dipped in 500 mg/l, 29° C.; for inhibition at 500 µg/mL: read-out: Percent Growth Inhibition, SCL MIN
Protocol: (§2) The treated and untreated discs were then placed on agar plates and one of the following fungus species: Septoria nodorum (SEP NOD), Botrytis cinerea (BOT CIN), Fusarium oxysporum (FUS OXY), Pythium ultimum (PYT ULT), Rhizoctonia solani (RHI SOL), Colletotrichum gossypii (COL GOS), and Scierotinia minor (SCL MIN), was added to the center of each disc in the form of a culture plug with the fungus mat in contact with the paper of the test disc. Cercosporidium personatum (CER PER), was added to discs as a spore suspension (20,000 spores/ml) to the disc (two drops of spore suspension per disc), rather than a mycelial culture plug. The plates were then incubated at 29° C. in an oven.
(§3) With the exception of the discs containing Cercosporidium personatum, the discs were evaluated by first measuring the radius from the center of the fungus colony on the treated discs and on the untreated discs. Percent growth inhibition of each of the compounds tested was determined as a function of the difference between the radius of the fungus colony on the treated disc versus the radius of the fungus colony on the untreated disc.

Fusarium oxysporum = experiment: Fungal growth inhibition, treated disc on agar (FUS OXY); assay type: cell-based; conditions: disc dipped in 500 mg/l, 29° C.; for inhibition at 500 µg/mL: Fusarium oxysporum, read-out: Percent Growth Inhibition, FUS OXY
[1] = system: Cercosporidium personatum; experiment: Fungal germination and growth, treated disc on agar, scored (CER PER); assay type: cell-based; design: key: 100: Complete inhibition of germination and growth.; 80: Nearly complete inhibition but some growth.; 50: Partial inhibition of growth or, early complete inhibition but later growth begins.; 20: Some inhibition of growth, but not significant.; 0: No inhibition of growth; conditions: disc dipped in 500 mg/l, 29° C., numerical score 0-100, spore suspension
Excerpt: Filter paper discs, each 11 mm. in diameter, were dipped in each of the test solutions. The discs were allowed to air dry to drive off the acetone solvent. A number of untreated discs were used as controls. The treated and untreated discs were then placed on agar plates and one of the following fungus species: Septoria nodorum (SEP NOD), Botrytis cinerea (BOT CIN), Fusarium oxysporum (FUS OXY), Pythium ultimum ([…]), Rhizoctonia solani (RHI SOL), Colletotrichum gossypii (COL GOS), and Scierotinia minor (SCL MIN), was added to the center of each disc in the form of a culture plug with the fungus mat in contact with the paper of the test disc. Cercosporidium personatum (CER PER), was added to discs as a spore suspension (20,000 spores/ml) to the disc (two drops of spore suspension per disc), rather than a mycelial culture plug. The plates were then incubated at 29° C. in an oven. In the case of the Cercosporidium personatum (CER PER) fungi, scoring was done on a numerical basis as follows: 100=Complete inhibition of germination and growth. 80=Nearly complete inhibition but some growth. 50=Partial inhibition of growth or, early complete inhibition but later growth begins. 20=Some inhibition of growth, but not significant. 0=No inhibition of growth. The results of all the above tests appear in Table III below under the headings "SEP NOD," "BOT CIN," "FUS OXY," "[…]" "COL GOS" and "CER PER".

Rhizoctonia solani = experiment: Fungal growth inhibition, treated disc on agar (RHI SOL); assay type: cell-based; conditions: disc dipped in 500 mg/l, 29° C.; for inhibition at 500 µg/mL: Rhizoctonia solani, read-out: Percent Growth Inhibition, RHI SOL
Helminthosporium sativum = experiment: Barley spot blotch, foliar treatment (HEL SAT); assay type: in vivo; conditions: foliar, 1,000 mg/l; for pest or weed control at 1000 µg/mL: Helminthosporium, foliar, 216 h, read-out: Percent Reduction of Disease, HEL SAT
Protocol: Compositions containing Compounds Nos. 1-81 were prepared by dissolving 0.24 grams of each of the compounds in 8 ml of acetone or other suitable inert solvent. Each of the resultant solutions was treated with 3 drops of TWEEN 20 (ethoxylated ethylene sorbitan monolaurate, a non-ionic surfactant)(I.C.I.), and water was added to form an emulsion. The degree of dilution with water was dictated by the desired concentration of the compound in the composition. The greater the quantity of water added, the lower the concentration of the compound in the composition, reported in milligrams per liter (mg/l) Ten plants of six day-old Barley (variety "Robust") were planted in each of a plurality of pots. Each pot was then either sprayed with one of the compositions of Example 9, at a concentration of 1,000 mg/l, or left unsprayed. The unsprayed plants were used as controls. An equal number of pots were sprayed and unsprayed. All plants, sprayed and unsprayed, were thereafter inoculated with spores of the blotch fungus Helminthosporium sativum. All inoculated plants were placed in a 99% humidity chamber for 24 hours and then placed in a greenhouse, maintained at a temperature of 21° C., for eight days. […] Percent control was computed and the results are summarized in Table II under the heading "HEL SAT".

Erysiphe cichoracearum = experiment: Powdery mildew of cucumber, systemic root uptake (CMS); assay type: in vivo; conditions: 45 ml of 250 mg/l, 8 days after inoculation
Protocol: (§1) Compositions containing Compounds Nos. 1-81 were prepared by dissolving 0.24 grams of each of the compounds in 8 ml of acetone or other suitable inert solvent. Each of the resultant solutions was treated with 3 drops of TWEEN 20 (ethoxylated ethylene sorbitan monolaurate, a non-ionic surfactant)(I.C.I.), and water was added to form an emulsion. The degree of dilution with water was dictated by the desired concentration of the compound in the composition. The greater the quantity of water added, the lower the concentration of the compound in the composition, reported in milligrams per liter (mg/l) […] Upon reaching these ages, the plants were either treated with 45 ml of 250 mg/l concentration of the compositions of Example 9 or were left untreated. The untreated plants were used as controls. The 45 ml compositions saturated the soil of the treated pots without significant loss through drainage into the saucers below the pots. Twenty-four hours after the treatment with the compositions, both the barley and cucumber plants in all the pots, those treated and those untreated, were inoculated with powdery mildew fungus. This was accomplished by tapping leaves of previously infected barley and cucumber plants over the treated and untreated pots containing the barley and cucumber plants, respectively, to distribute spores of the fungus over the plants tested. […] Intermediate ratings were assigned depending on the degree of disease. […] The results of the powdery mildew disease control of barley are reported under the heading of "BMS". The results for cucumber mildew control are reported under the heading "CMS".

Botrytis cinerea = experiment: Fungal growth inhibition, treated disc on agar (BOT CIN); assay type: cell-based; conditions: disc dipped in 500 mg/l, 29° C.; for inhibition at 500 µg/mL: Botrytis cinerea, read-out: Percent Growth Inhibition, BOT CIN
Protocol: as §2, §3

Erysiphe graminis [2] = experiment: Powdery mildew in barley, foliar application (ERY GRA); assay type: in vivo; conditions: foliar, 1,000 mg/l, 8 days after inoculation; for pest or weed control at 1000 µg/mL: Blumeria graminis, foliar, 192 h, read-out: Percent Reduction of Disease, ERY GRA
Protocol: Compositions containing Compounds Nos. 1-81 were prepared by dissolving 0.24 grams of each of the compounds in 8 ml of acetone or other suitable inert solvent. Each of the resultant solutions was treated with 3 drops of TWEEN 20 (ethoxylated ethylene sorbitan monolaurate, a non-ionic surfactant)(I.C.I.), and water was added to form an emulsion. The degree of dilution with water was dictated by the desired concentration of the compound in the composition. The greater the quantity of water added, the lower the concentration of the compound in the composition, reported in milligrams per liter (mg/l) Ten plants of "Robust" variety barley were planted in each of a plurality of pots. Each pot was then either sprayed with one of the compositions of Example 9, at a composition concentration of 1,000 mg/l, or left unsprayed. For each pot sprayed, one pot was left unsprayed as a control. After the leaves of the sprayed pots were dried, the sprayed pots and the unsprayed control pots were placed in a greenhouse maintained at 21° C. All the pots were then inoculated with barley powdery mildew fungus, Erysiphe graminis. This inoculation was accomplished by distributing spores of the fungus over the leaves of the plants to be tested from plants which had previously been infected with the mildew disease. […] Again, percent control was computed by comparing the treatment scores with the scores of the untreated controls. The results are summarized in Table II under the heading "ERY GRA".

Erysiphe graminis [3] = experiment: Powdery mildew of barley, systemic root uptake (BMS); assay type: in vivo; conditions: 45 ml of 250 mg/l, 8 days after inoculation
Protocol: as §1

| SMILES | inhibition at 500 µg/mL (Scierotinia minor) | inhibition at 500 µg/mL (Fusarium oxysporum) | CER PER inhibition score [1] | inhibition at 500 µg/mL (Rhizoctonia solani) | pest or weed control at 1000 µg/mL (Helminthosporium sativum) | Percent Reduction of Disease, CMS (Erysiphe cichoracearum) | inhibition at 500 µg/mL (Botrytis cinerea) | pest or weed control at 1000 µg/mL (Erysiphe graminis [2]) | Percent Reduction of Disease, BMS (Erysiphe graminis [3]) | Percent Growth Inhibition, SCL MIN (Scierotinia minor) | Percent Growth Inhibition, FUS OXY (Fusarium oxysporum) | Percent Growth Inhibition, RHI SOL (Rhizoctonia solani) | Percent Reduction of Disease, HEL SAT (Helminthosporium sativum) | Percent Growth Inhibition, BOT CIN (Botrytis cinerea) | Percent Reduction of Disease, ERY GRA (Erysiphe graminis [2]) |
| --- | --- | --- | --- | --- | --- | --- | --- | --- | --- | --- | --- | --- | --- | --- | --- |
| CCCC(C#N)(Cc1ccc(Oc2ccccc2)cc1)c1cccnc1 (stereo not drawn) [Compound 17] | 10% | 60% | 0 | 45% | 0% | 100% | 5% | 70% | 0% | – | – | – | – | – | – |
| C=CCC(C#N)(Cc1ccc(C(C)(C)C)cc1)c1cccnc1 (stereo not drawn) [Compound 18] | 10% | 50% | 0 | 40% | 100% | 20% | 10% | 100% | 20% | – | – | – | – | – | – |
| CCCCC(C#N)(Cc1ccc(C(C)(C)C)cc1)c1cccnc1 (stereo not drawn) [Compound 19] | 100% | 100% | 100 | 91% | 100% | 0% | 40% | 100% | 35% | – | – | – | – | – | – |
| CCCC(C#N)(CCc1ccccc1)c1ccncc1 (stereo not drawn) [Compound 25] | 86% | 63% | 0 | 4% | 0% | 17% | 55% | 67% | 0% | – | – | – | – | – | – |
| CCCCC(C#N)(CCc1ccccc1)c1ccncc1 (stereo not drawn) [Compound 26] | 96% | 59% | 0 | 4% | 0% | 0% | 5% | 50% | 0% | – | – | – | – | – | – |
| C=CCC(C#N)(CCc1ccc(OC)cc1)c1ccccn1 (stereo not drawn) [Compound 28] | – | – | 100 | – | – | 0% | – | – | 0% | 96% | 100% | 60% | 100% | 98% | 90% |
| COc1ccc(CCC(C#N)(CC(C)C)c2ccccn2)cc1 (stereo not drawn) [Compound 29] | – | – | 100 | – | – | 0% | – | – | 0% | 94% | 97% | 70% | 100% | 98% | 100% |
